One molecule from ChEMBL document CHEMBL1133885, “A short synthesis of argatroban. a potent selective thrombin inhibitor” (Bioorg Med Chem Lett, 2001) can be followed below.

The nature of the test: Concentration required for 50% inhibition of thrombin induced platelet aggregation. It counts as functional.

As usually defined, the IC50 is the point on the concentration scale where inhibition reaches its midpoint. The low end stands for higher potency, the high end for lower potency. Turning to `C[C@@H]1CCN(C(=O)[C@H](CCCNC(=N)N)NS(=O)(=O)c2cccc3c2NC[C@H](C)C3)[C@@H](C(=O)O)C1` [ARGATROBAN], the IC50 came to 9 nM.
